The source of these data is patent US7388097B2, “Difluoromethyl thiazolyl carboxanilides” (Bayer CropScience AG, priority 2002, dated 2008).

Data set [1] in a line: logP determination by HPLC on reverse-phase column (C 18), EEC Directive 79/831 Annex V.A8. The note with it: reverse-phase C18 HPLC column; pH 2.3; HPLC reverse-phase C 18; 43° C.; 0.1% aqueous phosphoric acid/acetonitrile gradient. In kind it is physicochemical. The procedure:
The determination of the logP values given in the tables and Preparation Examples above is carried out in accordance with EEC Directive 79/831 Annex V.A8 by HPLC (High Performance Liquid Chromatography) on a reverse-phase column (C 18). Temperature: 43° C.
The determination is carried out in the acidic range at pH 2.3 using the mobile phases 0.1% aqueous phosphoric acid and acetonitrile; linear gradient from 10% acetonitrile to 90% acetonitrile.
Calibration is carried out using unbranched alkan-2-ones (of 3 to 16 carbon atoms) with known logP values (determination of the logP values by the retention times using linear interpolation between two successive alkanones).

A further data set concerns Venturia inaequalis. The experiment in a line: Venturia Test (Apple)/Protective. It counts as in vivo. As to conditions: 240 h, protective spray, application rate 10 g/ha, evaluation 10 days after inoculation, 100% = no infection, read-out: % efficacy. The procedure: Venturia Test (Apple)/Protective
(§1) To produce a suitable preparation of active compound, 1 part by weight of active compound is mixed with the stated amounts of solvents and emulsifier, and the concentrate is diluted with water to the desired concentration.
To test for protective activity, young plants are sprayed with the preparation of active compound at the stated application rate. After the spray coating has dried on, the plants are inoculated with an aqueous conidia suspension of the apple scab pathogen Venturia inaequalis and then remain in an incubation cabin at about 20° C. and 100% relative atmospheric humidity for 1 day.
The plants are then placed in a greenhouse at about 21° C. and a relative atmospheric humidity of about 90%.
Evaluation is carried out 10 days after the inoculation. 0% means an efficacy which corresponds to that of the control, whereas an efficacy of 100% means that no infection is observed.

Another data set concerns Botrytis cinerea. Put plainly: Botrytis Test (Bean)/Protective. In kind it is in vivo. The note with it: 48 h, protective spray, application rate 100 g/ha, evaluation 2 days after inoculation, 100% = no infection, read-out: % efficacy. Here is the method:
Botrytis Test (Bean)/Protective
as §1
To test for protective activity, young plants are sprayed with the preparation of active compound at the stated application rate. After the spray coating has dried on, 2 small pieces of agar colonized by Botrytis cinerea are placed onto each leaf. The inoculated plants are placed in a dark chamber at about 20° C. and 100% relative atmospheric humidity.
2 days after the inoculation, the size of the infected areas on the leaves is evaluated. 0% means an efficacy which corresponds to that of the control, whereas an efficacy of 100% means that no infection is observed.

Another data set has as its system Rhizoctonia solani. The experiment in a line: In vitro test for the ED50 determination of microorganisms. In kind it is cell-based. As to conditions: 50% inhibition of fungal growth, tested at 0.1, 1, 10 and 100 ppm, 22° C., 3-5 days, photometric 620 nm. Here is the method:
(§2) In Vitro Test for the ED50 Determination of Microorganisms
(§3) A methanolic solution of the active compound to be tested, mixed with the emulsifier PS16, is pipetted into the wells of microtiter plates. After the solvent has evaporated, 200 μl of potato/dextrose medium are added to each well.
(§4) Beforehand, a suitable concentration of spores or mycelium of the fungus to be tested was added to the medium.
(§5) The resulting concentrations of active compound are 0.1, 1, 10 and 100 ppm. The resulting concentration of the emulsifier is 300 ppm.
(§6) The plates are then incubated on a shaker at a temperature of 22° C. for 3-5 days, until sufficient growth can be observed in the untreated control.
(§7) Evaluation is carried out photometrically at a wavelength of 620 nm. The dose of active compound which causes a 50% inhibition of fungal growth compared to the untreated control (ED50) is calculated from the data measured at different concentrations.

In a further data set the test system is Septoria tritici. Described as above. The note with it: 50% inhibition of fungal growth, tested at 0.1, 1, 10 and 100 ppm, 22° C., 3-5 days, photometric 620 nm. In kind it is cell-based. Here is the method: as §2, §3, §4, §5, §6, §7

The term chromatographic logP denotes a lipophilicity value derived from retention on a column. Regarding `Cc1nc(C(F)F)c(C(=O)Nc2ccccc2-c2ccc(C(F)(F)F)cc2)s1` [Example 3], the chromatographic logP in data set [1] was 3.52. The pest or weed control at 10 g/ha in the data set with Venturia inaequalis came to 100%. For the same molecule, the pest or weed control at 100 g/ha in the data set on Botrytis cinerea worked out at 100%. Moreover, the ED50 with Rhizoctonia solani is on record as less than 0.1 ppm; in the data set with Septoria tritici it was 0.36 ppm.

As for `Cc1nc(C(F)F)c(C(=O)Nc2ccccc2-c2ccc(OC(F)(F)F)cc2)s1` [Example 5], the chromatographic logP in data set [1] stood at 3.72. The pest or weed control at 10 g/ha in the data set with Venturia inaequalis turned out to be 87%. Further, the pest or weed control at 100 g/ha with Botrytis cinerea was found to be 79%. Also, the figures for the ED50 with Rhizoctonia solani and with Septoria tritici were less than 0.1 ppm and 0.25 ppm, respectively.

In data set [1], `Cc1nc(C(F)F)c(C(=O)Nc2ccccc2-c2ccc(F)cc2)s1` [Example 7] came in with a chromatographic logP of 3.09. The pest or weed control at 10 g/ha with Venturia inaequalis amounted to 100%. Besides, the pest or weed control at 100 g/ha in the data set on Botrytis cinerea amounted to 94%. Also, the ED50 in the data set on Rhizoctonia solani is 0.48 ppm; in the data set with Septoria tritici it was 0.68 ppm.

The molecule `Cc1nc(C(F)F)c(C(=O)Nc2ccccc2-c2ccc(F)c(Cl)c2)s1` [Example 1, N-(3′-chloro-4′-fluoro-1,1′-biphenyl-2-yl)-2-methyl-4-(difluoromethyl)-1,3-thiazole-5-carboxamide] showed a chromatographic logP in data set [1] of 3.28.

The molecule `Cc1nc(C(F)F)c(C(=O)Nc2ccccc2-c2ccc(Br)cc2)s1` [Example 2] had a chromatographic logP in data set [1] of 3.47. Further, the pest or weed control at 10 g/ha with Venturia inaequalis was 100%. Also, the pest or weed control at 100 g/ha in the data set with Botrytis cinerea stood at 100%.

In data set [1], `Cc1nc(C(F)F)c(C(=O)Nc2ccccc2-c2ccc(Cl)c(F)c2)s1` [Example 11] showed a chromatographic logP of 3.29. Also, in the data set on Venturia inaequalis, the pest or weed control at 10 g/ha turned out to be 100%. Also, the pest or weed control at 100 g/ha in the data set with Botrytis cinerea turned out to be 100%.

As for `Cc1nc(C(F)F)c(C(=O)Nc2ccccc2-c2ccc(C)c(Cl)c2)s1` [Example 12], the chromatographic logP in data set [1] worked out at 3.62. Also, the pest or weed control at 10 g/ha with Venturia inaequalis came to 100%. Also, in the data set on Botrytis cinerea, the pest or weed control at 100 g/ha amounted to 100%.

For the molecule `CSc1ccc(-c2ccccc2NC(=O)c2sc(C)nc2C(F)F)cc1` [Example 6], the chromatographic logP in data set [1] was 3.39. Besides, the pest or weed control at 10 g/ha with Venturia inaequalis was 99%. Also, the pest or weed control at 100 g/ha with Botrytis cinerea was found to be 94%. Also, the ED50 with Rhizoctonia solani is 3.25 ppm; in the data set on Septoria tritici it was 3.51 ppm.

The molecule `Cc1nc(C(F)F)c(C(=O)Nc2ccccc2-c2ccc(Cl)cc2C)s1` [Example 10] had a chromatographic logP in data set [1] of 3.77. Besides, in the data set on Venturia inaequalis, the pest or weed control at 10 g/ha worked out at 100%. The pest or weed control at 100 g/ha with Botrytis cinerea is 100%.

Consider `Cc1nc(C(F)F)c(C(=O)Nc2ccccc2-c2cccc(Cl)c2)s1` [Example 4], for which the chromatographic logP in data set [1] worked out at 3.37. In the data set on Venturia inaequalis, the pest or weed control at 10 g/ha worked out at 100%. Further, the pest or weed control at 100 g/ha with Botrytis cinerea came out at 100%. For the same molecule, the ED50 with Rhizoctonia solani was less than 0.1 ppm; with Septoria tritici, 0.45 ppm.

Turning to `Cc1nc(C(F)F)c(C(=O)Nc2ccccc2-c2ccc(Cl)cc2Cl)s1` [Example 9], the chromatographic logP in data set [1] is 3.58. For the same molecule, in the data set with Venturia inaequalis, the pest or weed control at 10 g/ha amounted to 98%. Besides, the pest or weed control at 100 g/ha in the data set with Botrytis cinerea is 95%.
